Among the data in EP2112155B1, “Hydrogensulfate salt of 2-acetoxy-5-(a-cyclopropylcarbonyl-2-fluorobenzyl)-4,5,6,7-tetrahydrothieno[3,2-c]pyridine and its preparation” (Sandoz AG, priority 2008, dated 2009) are Solubility values, retold here.

The nature of this data set: Solubility of various Prasugrel acid addition salts, determined according to European Pharmacopoeia 6.0, 5.11 (2008). The format is physicochemical. The text has this:
As bioavailability depends, among others, on solubility, an optimal active substance for oral application should show a high solubility in a broad pH-range. […] Table 2: Solubility of various Prasugrel acid addition salts

Structures can show the parent of a compound that is named as a salt.

Turning to `CC(=O)Oc1cc2c(s1)CCN(C(C(=O)C1CC1)c1ccccc1F)C2` (stereo not drawn) [Prasugrel hydrochloride], the Solubility result is “insoluble” (Acetate buffer pH 4.5), “sparingly soluble” (Hydrochloric acid medium pH 1.2) and “insoluble” (water).
